Measurements: patent US11220524B2, “Selective inhibitors of protein arginine methyltransferase 5 (PRMT5)” (PRELUDE THERAPEUTICS, INCORPORATED, priority 2017, dated 2022)
Structures can show the parent of a compound that is named as a salt.

Experiments:
PRMT5/MEP50 complex = PRMT5/MEP50 complex (Homo sapiens (Human), UniProt O14744); assay: Biochemical assay: PRMT5/MEP50 methylation of histone H2A with 3H-SAM, filter plate scintillation; details: biochemical potency; read-out: PRTMT5/MEP50 IC50
Description: Biochemical Assay Protocol
Compounds were solubilized, and 3-fold diluted in 100% DMSO. […] Standard reactions were performed in a total volume of […] assay buffer, with histone H2A (5 μM final) as substrate. To this was added the PRMT5/MEP50 complex diluted to provide a final assay concentration of 5 nM and the compounds were allowed to preincubate for 15 to 20 minutes at room temperature. The reaction was initiated by adding S-[3H-methyl]-adenosyl-L-methionine (PerkinElmer) to final concentration of 1 μM. Following a 60 minutes incubation at 30° C., the reaction was stopped by adding 100 μL of 20% TCA. Each reaction was spotted onto filter plate (MultiScreen FB Filter Plate, Millipore), and washed 5 times with PBS buffer, Scintillation fluid was added to the filter plate and read in a scintillation counter. IC50 values were determined by fitting the data to the standard 4 parameters with Hill Slope using GraphPad Prism software.

[1] = system: Symmetric Di-Methyl Arginine (sDMA) in Granta-519 cells; assay: Western blot for symmetric di-methyl arginine (sDMA) marks in Granta cells, 3 days treatment; type: cell-based; details: Homo sapiens, 3 days
Description: Cell Treatment and Western Blotting for Detecting Symmetric Di-Methyl Arginine (sDMA) and Histone H3R8 Dimethyl Symmetric (H3R8me2s) Marks
Initial compounds screening in A549 cells: Compounds were dissolved in DMSO to make 10 mM stock and further diluted to 0.1, and 1 mM. A549 cells were maintained in PRMI 1640 (Corning Cellgro, Catalog #: 10-040-CV) medium supplemented with 10% v/v FBS (GE Healthcare, Catalog #: SH30910.03). One day before experiment, 1.25×10^5 cells were seeded in 6 well plate in 3 mL medium and incubated overnight. The next day, medium was changed and 3 uL of compound solution was added (1:1,000 dilution, 0.1 and 1 uM final concentration; DMSO concentration: 0.1%), and incubated for 3 days. Cells incubated with DMSO was used as a vehicle control. Cells were washed once with PBS, trypsinized in 150 uL 0.25% Trypsin (Corning, Catalog #: 25-053-CI), neutralized with 1 mL complete medium, transferred to microcentrifuge tubes and collected. Cell pellet was then resuspended in 15 uL PBS, lysed in 4% SDS, and homogenized by passing through homogenizer column (Omega Biotek, Catalog #: HCR003). Total protein concentrations were determined by BCA assay (ThermoFisher Scientific, Catalog #: 23225). Lysates were mixed with 5× Laemmli buffer and boiled for 5 min. Forty ug of total protein was separated on SDS-PAGE gels (Bio-Rad, catalog #: 4568083, 4568043), transferred to PVDF membrane, blocked with 5% dry milk (Bio-Rad, Catalog #: 1706404) in TBS with 0.1% v/v Tween 20 (TBST) for 1 hour at room temperature (RT), and incubated with primary antibodies (sDMA: Cell signaling, Catalog #: 13222, 1:3,000; H3R8me2s: Epigentek, Catalog #: A-3706-100, 1:2,000; β-Actin: Abcam, Catalog #: ab8227, 1:10,000) in 5% dry milk in TBST at 4° C. for overnight. The next day, membranes were washed with TBST, 5×5 min, and incubated withhP conjugated seconded antibody (GE Healthcare; Catalog #: NA934-1ML; 1:5,000) for 2 hours at RT, followed by 5×5 min washes with TBST, and incubation with ECL substrates (Bio-Rad, Catalog #: 1705061, 1705062). Chemiluminescent signal was captured with FluoChem HD2 imager (Proteinsimple) and analyzed by ImageJ.
Cells incubated with DMSO was used as a vehicle control. Cells were harvested and subjected to western blot analysis as described above. SmD3me2s and H3R8me2s bands were quantified by ImageJ. Signals were normalized to β-Actin and DMSO control. IC50 values were calculated using Graphpad Prism.

[2] = Granta-519, 72 h, Granta cell line

Sequence of PRMT5/MEP50 complex (O14744 whole entry): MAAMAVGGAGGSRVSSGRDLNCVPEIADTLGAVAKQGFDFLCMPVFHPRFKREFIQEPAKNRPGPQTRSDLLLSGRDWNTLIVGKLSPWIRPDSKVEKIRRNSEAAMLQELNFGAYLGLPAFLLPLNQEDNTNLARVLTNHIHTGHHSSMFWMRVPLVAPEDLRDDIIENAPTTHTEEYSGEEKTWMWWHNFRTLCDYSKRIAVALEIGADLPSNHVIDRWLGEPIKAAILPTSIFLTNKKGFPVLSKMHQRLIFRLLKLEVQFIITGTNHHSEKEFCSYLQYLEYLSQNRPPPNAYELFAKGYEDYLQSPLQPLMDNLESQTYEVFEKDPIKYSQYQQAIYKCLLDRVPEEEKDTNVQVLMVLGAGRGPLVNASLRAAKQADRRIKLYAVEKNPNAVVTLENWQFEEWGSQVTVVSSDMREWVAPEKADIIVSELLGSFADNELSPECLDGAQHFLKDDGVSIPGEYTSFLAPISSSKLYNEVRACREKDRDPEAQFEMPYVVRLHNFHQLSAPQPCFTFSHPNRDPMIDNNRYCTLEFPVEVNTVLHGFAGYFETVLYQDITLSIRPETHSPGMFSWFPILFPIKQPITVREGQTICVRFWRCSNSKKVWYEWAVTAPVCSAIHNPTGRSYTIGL
Sequence of PRMT5/MEP50 complex (Q9BQA1 whole entry partner): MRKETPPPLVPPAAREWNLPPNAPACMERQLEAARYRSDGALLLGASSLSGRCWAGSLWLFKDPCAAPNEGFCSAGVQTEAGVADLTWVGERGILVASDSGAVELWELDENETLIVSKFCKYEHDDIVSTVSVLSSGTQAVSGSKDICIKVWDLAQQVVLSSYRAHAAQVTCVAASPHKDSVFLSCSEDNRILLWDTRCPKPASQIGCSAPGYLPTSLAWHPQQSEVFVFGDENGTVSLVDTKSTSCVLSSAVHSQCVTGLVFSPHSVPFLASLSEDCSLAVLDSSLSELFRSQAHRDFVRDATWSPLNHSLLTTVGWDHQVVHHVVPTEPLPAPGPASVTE

| Structure (SMILES) | IC50 (PRMT5/MEP50 complex) | IC50 [1, 2] | IC50 ([1]; 72 h, Granta-519 cell line) |
| --- | --- | --- | --- |
| CC(c1ccc(Cl)cc1)C1O[C@@H](n2ccc3c(N)ncnc32)[C@H](O)[C@@H]1O (stereo in doubt) [Example 6-C, (2R,3R,4S,5S)-2-(4-amino-7H-pyrrolo[2,3-d]pyrimidin-7-yl)-5-(1-(4-chlorophenyl)ethyl)tetrahydrofuran-3,4-diol] | 6.9 nM | 93 nM |  |
| Cc1cc([C@@](C)(O)[C@H]2O[C@@H](n3cnc4c(N)ncnc43)[C@H](O)[C@@H]2O)ccc1Cl [Example 2-C, (2R,3R,4S,5S)-2-(6-amino-9H-purin-9-yl)-5-((R)-1-(4-chloro-3-methylphenyl)-1-hydroxyethyl)tetrahydrofuran-3,4-diol] | 13.5 nM | 13 nM |  |
| C[C@@](O)(c1ccc(Cl)c(Cl)c1)[C@H]1O[C@@H](n2cc(F)c3c(N)ncnc32)[C@H](O)[C@@H]1O [Example 3-C, (2R,3R,4S,5S)-2-(4-amino-5-fluoro-7H-pyrrolo[2,3-d]pyrimidin-7-yl)-5-((R)-1-(3,4-dichlorophenyl)-1-hydroxyethyl)tetrahydrofuran-3,4-diol] | 0.9 nM | 3.8 nM |  |
| C[C@@H](c1ccc(Cl)cc1)[C@H]1O[C@@H](n2ccc3c(N)ncnc32)[C@H](O)[C@@H]1O [Example 5-C, (2R,3R,4S,5R)-2-(4-amino-7H-pyrrolo[2,3-d]pyrimidin-7-yl)-5-((S)-1-(4-chlorophenyl)ethyl)tetrahydrofuran-3,4-diolhydrochloride] |  | 91 nM |  |
| C[C@@](O)(c1ccc(Cl)c(F)c1)[C@H]1O[C@@H](n2cc(F)c3c(N)ncnc32)[C@H](O)[C@@H]1O [Example 15-C, (2R,3R,4S,5S)-2-(4-amino-5-fluoro-7H-pyrrolo[2,3-d]pyrimidin-7-yl)-5-((R)-1-(4-chloro-3-fluorophenyl)-1-hydroxyethyl)tetrahydrofuran-3,4-diol] | 1 nM | 1.9 nM |  |
| C[C@@](O)(c1ccc(Cl)s1)[C@H]1O[C@@H](n2ccc3c(N)ncnc32)[C@H](O)[C@@H]1O [Example 21-C, (2R,3R,4S,5S)-2-(4-amino-7H-pyrrolo[2,3-d]pyrimidin-7-yl)-5-((S)-1-(5-chlorothiophen-2-yl)-1-hydroxyethyl)tetrahydrofuran-3,4-diol] | 0.9 nM | 7 nM |  |
| N/N=c1/nc[nH]c2c1ccn2[C@@H]1C[C@H]([C@H](O)c2ccc(Cl)cc2)[C@@H](O)[C@H]1O [Example 25-B, 7-[(1R,2S,3R,4R)-4-[(S)-(4-chlorophenyl)-hydroxy-methyl]-2,3-dihydroxy-cyclopentyl]-1H-pyrrolo[2,3-d]pyrimidin-4-one hydrazone hydrochloride] | 47 nM | ~3000 nM |  |
| N/N=c1/nc[nH]c2c1ccn2[C@@H]1C[C@H]([C@H](O)c2ccc(F)c(F)c2)[C@@H](O)[C@H]1O [Example 37-B, 7-[(1R,2S,3R,4R)-4-[(S)-(3,4-difluorophenyl)-hydroxy-methyl]-2,3-dihydroxy-cyclopentyl]-1H-pyrrolo[2,3-d]pyrimidin-4-one hydrazone hydrochloride] | 6.3 nM | 100000 nM |  |
| O/N=c1/nc[nH]c2c1ccn2[C@@H]1C[C@H]([C@H](O)c2ccc(Cl)cc2)[C@@H](O)[C@H]1O [Example 50-B, 7-[(1R,2S,3R,4R)-4-[(S)-(4-chlorophenyl)-hydroxy-methyl]-2,3-dihydroxy-cyclopentyl]-1H-pyrrolo[2,3-d]pyrimidin-4-one oxime hydrochloride] | 11.7 nM | ~600 nM |  |
| CN(N)c1ncnc2c1ccn2[C@@H]1C[C@H](CCc2ccc3ccc(NCC4CC4)nc3c2)[C@@H](O)[C@H]1O [Example 79-B, (1S,2R,3S,5R)-3-(2-(2-((cyclopropylmethyl)amino)quinolin-7-yl)ethyl)-5-(4-(1-methylhydrazineyl)-7H-pyrrolo[2,3-d]pyrimidin-7-yl)cyclopentane-1,2-diol] | 8.2 nM | 97 nM |  |
| CCO/N=c1\nc[nH]c2c1ccn2[C@@H]1O[C@H]([C@](C)(O)c2ccc(Cl)cc2)[C@@H](O)[C@H]1O [Example 83, 7-((2R,3R,4S)-5-((R)-1-(4-chlorophenyl)-1-hydroxyethyl)-3,4-dihydroxytetrahydrofuran-2-yl)-1,7-dihydro-4H-pyrrolo[2,3-d]pyrimidin-4-one O-ethyl oxime] |  |  | 97 nM |
| CNc1ccc2ccc(CC[C@H]3C[C@@H](n4ccc5/c(=N/OC)nc[nH]c54)[C@H](O)[C@@H]3O)cc2n1 [Example 84-B, 7-((1R,2S,3R,4S)-2,3-dihydroxy-4-(2-(2-(methylamino)quinolin-7-yl)ethyl)cyclopentyl)-1,7-dihydro-4H-pyrrolo[2,3-d]pyrimidin-4-one O-methyl oxime] | 2.7 nM | 16 nM |  |
| CO/N=c1\nc[nH]c2c1ccn2[C@@H]1C[C@H](CCc2ccc3ccc(N)nc3c2)[C@@H](O)[C@H]1O [Example 85-B, 7-((1R,2S,3R,4S)-4-(2-(2-aminoquinolin-7-yl)ethyl)-2,3-dihydroxycyclopentyl)-1,7-dihydro-4H-pyrrolo[2,3-d]pyrimidin-4-one O-methyl oxime] | 0.64 nM | 0.9 nM |  |
| CO/N=c1\nc[nH]c2c1ccn2[C@@H]1C[C@H](CCc2ccc3cc(Cl)c(N)nc3c2)[C@@H](O)[C@H]1O [Example 86-B, (Z)-7-((1R,2S,3R,4S)-4-(2-(2-amino-3-chloroquinolin-7-yl)ethyl)-2,3-dihydroxycyclopentyl)-3,7-dihydro-4H-pyrrolo[2,3-d]pyrimidin-4-one O-methyl oxime] | 0.2 nM | 3 nM |  |
| O/N=c1\nc[nH]c2c1ccn2[C@@H]1C[C@H](CCc2ccc3ccc(NCC4CC4)nc3c2)[C@@H](O)[C@H]1O [Example 87-B, 7-((1R,2S,3R,4S)-4-(2-(2-((cyclopropylmethyl)amino)quinolin-7-yl)ethyl)-2,3-dihydroxycyclopentyl)-1,7-dihydro-4H-pyrrolo[2,3-d]pyrimidin-4-one oxime] | 0.33 nM | 1.7 nM |  |
| CN/N=c1\nc[nH]c2c1ccn2[C@@H]1C[C@H](CCc2ccc3ccc(NCC4CC4)nc3c2)[C@@H](O)[C@H]1O [Example 91-B, (1S,2R,3S,5R)-3-(2-(2-((cyclopropylmethyl)amino)quinolin-7-yl)ethyl)-5-((Z)-4-(2-methylhydrazineylidene)-1,4-dihydro-7H-pyrrolo[2,3-d]pyrimidin-7-yl)cyclopentane-1,2-diol] | 3.2 nM | 46.8 nM |  |
| CO/N=c1\nc[nH]c2c1ccn2[C@@H]1C[C@H]([C@H](O)c2ccc(Cl)c(Cl)c2)[C@@H](O)[C@H]1O [Example 92-B, 7-((1R,2S,3R,4R)-4-((S)-(3,4-dichlorophenyl)(hydroxy)methyl)-2,3-dihydroxycyclopentyl)-1,7-dihydro-4H-pyrrolo[2,3-d]pyrimidin-4-one O-methyl oxime] | 19.9 nM | 335 nM |  |
| C[C@@](O)(c1ccc(Cl)c(Cl)c1)[C@H]1C[C@@H](n2ccc3/c(=N\O)nc[nH]c32)[C@H](O)[C@@H]1O [Example 94-B, 7-((1R,2S,3R,4S)-4-((S)-1-(3,4-dichlorophenyl)-1-hydroxyethyl)-2,3-dihydroxycyclopentyl)-1,7-dihydro-4H-pyrrolo[2,3-d]pyrimidin-4-one oxime] | 3.4 nM | 53 nM |  |
| CO/N=c1/nc[nH]c2c1ccn2[C@@H]1O[C@H]([C@](C)(O)c2ccc(Cl)c(F)c2)[C@@H](O)[C@H]1O [Example 96] |  |  | 142 nM |
